According to PMC11761247, “Antioxidant, Anti-α-Glucosidase, Anti-Tyrosinase, and Anti-Acetylcholinesterase Components from Stem of Rhamnus formosana with Molecular Docking Study” (Antioxidants, 2024):
Like-named read-outs stand apart in the source and are kept apart here.

What was measured:
[1] = DPPH free radical scavenging activity; conditions: for EC50: isolated compounds (Table 5), read-out: SC50 DPPH
Experimental: DPPH analysis was performed according to the previously published procedure. A 400 μM DPPH radical solution was prepared in EtOH. The tested samples were dissolved in DMSO to prepare stock solutions, which were then diluted to the desired concentrations with EtOH. In a 96-well plate, 100 μL of each diluted tested sample solution was mixed with 100 μL of the DPPH radical solution (200 μM). The mixture was allowed to react in the dark at room temperature for 30 min. After the reaction, the absorbance at 520 nm was measured using an ELISA reader. DPPH radical scavenging activity was calculated by the following equation:(1) Scavenging rate (%)=(OD0−OD1)/OD0 where OD0 is absorbance of the control and OD 1 is that of the tested sample.

[2] = Ferric reducing antioxidant power (FRAP)
Experimental: The analysis was performed using the published method. The working solution was prepared by mixing acetate buffer (pH 3.6), ferric chloride solution (20 mM), and TPTZ solution (10 mM TPTZ in 40 mM HCl) in a 10:1:1 ratio. Then, 900 µL of this solution was warmed to 37 °C and mixed with 100 µL of the diluted sample, blank, or standard in a microcentrifuge tube. The tubes were vortexed and incubated in a dry bath at 37 °C for 40 min. Absorbance was measured at 593 nm. The standard curve was linear from 0 to 100 mM Trolox, and results were expressed as mM TE/g dry weight.

[3] = ABTS radical scavenging activity; conditions: for EC50: isolated compounds (Table 5), read-out: SC50 ABTS
Experimental: The analysis of ABTS was performed according to the previously published method. The ABTS solution (28 mM) was mixed with […] solution (9.6 mM) in a 1:1 ratio (v/v) and allowed to react in the dark at room temperature for 16 h to generate the ABTS radical solution. The ABTS radical solution was then diluted with EtOH until the absorbance at 740 nm reached 0.70 ± 0.02. The tested samples were dissolved in DMSO to prepare stock solutions, which were subsequently diluted to the desired concentrations with EtOH. In a 96-well plate, 190 μL of the diluted ABTS radical solution was mixed with 10 μL of each diluted sample solution. The mixture was allowed to react in the dark at room temperature for 6 min. The absorbance at 740 nm was then measured using an ELISA reader. The ABTS radical scavenging activity was calculated by the following equation:(2) Scavenging rate (%)=(OD0−OD1)/OD0×100 where OD0 is absorbance of the control and OD1 is that of the tested sample.

AChE = target: T1, AChE (Electrophorus electricus, UniProt O42275); assay: biochemical
T1 construct: purchased Sigma-Aldrich
Experimental: Determination of AChE inhibition was conducted based on the reported method with slight modifications. Sodium phosphate buffer (0.1 M, pH 8.0, 140 µL), test compound solution (20 µL), enzyme solution (15 µL of AChE at 0.2 units/mL), and DTNB (15 mM, 10 µL) were mixed and incubated for 10 min at room temperature. The reaction was then initiated by adding 10 µL of the substrate (AChI, 15 mM).

α-glucosidase = target: T2, α-glucosidase (Saccharomyces cerevisiae, UniProt P53341); assay: α-Glucosidase inhibitory activity (p-NPG substrate); type: biochemical
T2 construct: purchased Sigma-Aldrich

[4] = Superoxide radical scavenging activity (NBT/PMS/NADH); conditions: for EC50: isolated compounds (Table 5), read-out: SC50 Superoxide
Experimental: The superoxide scavenging activity assay was performed based on the published method. The superoxide radical was prepared in a 16 mM Tris-HCl buffer (pH 8.0) containing 50 µL of NBT (300 µM), 50 µL of PMS (120 µM), and 50 µL of different concentrations of the tested sample. The reaction was initiated by adding 50 µL of the NADH (468 µM) solution to the mixture and incubated at room temperature for 5 min. The activity of the samples was determined by calculating the decrease in absorbance measured at 560 nm by the following equation:(3) Scavenging rate (%)=(OD0−OD1)/OD0×100 where OD0 is absorbance of the control and OD1 is that of the tested sample.

[5] = solvent extracts, concentration for 50% free radical scavenging
[6] = isolated compounds (Table 5), Trolox equivalents

T1 sequence (O42275 24-633): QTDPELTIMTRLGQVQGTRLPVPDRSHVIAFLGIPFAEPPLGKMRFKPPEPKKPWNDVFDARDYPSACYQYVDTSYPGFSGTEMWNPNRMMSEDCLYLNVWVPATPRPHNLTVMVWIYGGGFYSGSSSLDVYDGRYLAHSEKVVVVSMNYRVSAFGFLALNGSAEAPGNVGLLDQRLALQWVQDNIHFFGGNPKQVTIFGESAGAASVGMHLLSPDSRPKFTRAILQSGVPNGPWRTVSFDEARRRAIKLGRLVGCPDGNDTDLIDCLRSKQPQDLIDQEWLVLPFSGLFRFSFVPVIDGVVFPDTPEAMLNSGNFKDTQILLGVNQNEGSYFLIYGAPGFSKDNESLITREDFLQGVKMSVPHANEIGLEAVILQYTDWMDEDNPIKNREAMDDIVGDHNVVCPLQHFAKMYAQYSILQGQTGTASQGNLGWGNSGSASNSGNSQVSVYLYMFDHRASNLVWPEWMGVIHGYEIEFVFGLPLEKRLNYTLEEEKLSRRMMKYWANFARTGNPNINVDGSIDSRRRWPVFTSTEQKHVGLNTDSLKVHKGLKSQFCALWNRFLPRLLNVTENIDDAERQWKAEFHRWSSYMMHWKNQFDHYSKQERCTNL
T2 sequence (P53341 whole entry): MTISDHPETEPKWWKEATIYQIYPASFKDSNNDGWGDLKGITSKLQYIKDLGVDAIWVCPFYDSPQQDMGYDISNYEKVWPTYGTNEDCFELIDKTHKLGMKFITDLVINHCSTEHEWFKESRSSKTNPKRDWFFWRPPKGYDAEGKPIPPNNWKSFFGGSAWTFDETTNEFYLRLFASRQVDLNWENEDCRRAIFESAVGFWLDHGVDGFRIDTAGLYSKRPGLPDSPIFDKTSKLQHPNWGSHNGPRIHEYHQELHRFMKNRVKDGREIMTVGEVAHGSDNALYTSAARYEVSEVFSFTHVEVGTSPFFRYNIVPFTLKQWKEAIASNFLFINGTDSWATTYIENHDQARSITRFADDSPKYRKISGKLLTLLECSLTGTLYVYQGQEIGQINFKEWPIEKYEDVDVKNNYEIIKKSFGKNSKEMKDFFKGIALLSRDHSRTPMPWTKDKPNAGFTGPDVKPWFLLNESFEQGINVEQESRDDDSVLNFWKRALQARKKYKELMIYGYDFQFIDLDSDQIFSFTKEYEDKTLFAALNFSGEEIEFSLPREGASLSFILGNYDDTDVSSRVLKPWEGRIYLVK

Row | SMILES | EC50 [1] [µM] | TE FRAP [2, 6] [mM/g] | EC50 [3] [µM] | IC50 (α-glucosidase) [µM] | EC50 [4] [µM] | IC50 (AChE) [µM] | further results
1 | Cc1cc(C(C)(C)C)c(O)c(C(C)(C)C)c1 [BHT, butylated hydroxytoluene, reference compound] | 708 ± 10.8 | 5712.61 ± 176.27 | 37.5 ± 4.31 | – | – | – | SC50 DPPH [1, 5]: 156.04 ± 14.31 µg/mL; TE FRAP ([2]; solvent extracts (Table 2), Trolox equivalents in mM per gram of extract): 3196.39 ± 115.26 mM/g; SC50 ABTS [3, 5]: 9.12 ± 1.85 µg/mL
2 | O=C(/C=C/c1ccc(O)c(O)c1)O[C@@H]1C[C@](O)(C(=O)O)C[C@@H](O)[C@H]1O [Chlorogenic acid, chlorogenic acid, reference compound] | – | – | – | – | – | – | IC50 (AChE; isolated compounds (Table 6), read-out: IC50 AChE (converted)): 303 ± 25.2 µM; IC50 (AChE; solvent extracts (Table 3), read-out: IC50 AChE (converted)): 496 µM
3 | Cc1cc(O)c2c(c1)C(=O)c1cccc(O)c1C2=O [Chrysophanol (4), chrysophanol] | > 200 | <1 | > 200 | 604 ± 44.8 | > 200 | > 400 | –
4 | O=c1cc(-c2ccc(O)c(O)c2)oc2cc(O[C@@H]3O[C@H](CO)[C@@H](O)[C@H](O)[C@H]3O)cc(O)c12 [Cynaroside, reference compound] | – | – | – | – | 20 ± 1.7 | – | SC50 Superoxide [4, 5]: 12.03 ± 4.20 µg/mL
5 | Cc1cc(O)c2c(c1)C(=O)c1cc(O)cc(O)c1C2=O [Emodin (3), emodin] | > 200 | <1 | > 200 | 58.9 ± 3.39 | 232 ± 15.9 | 77.6 ± 6.28 | –
6 | O=c1c(O)c(-c2ccc(O)cc2)oc2cc(O)cc(O)c12 [Kaempferol (1), kaempferol] | 61.7 ± 7.36 | 1046.16 ± 23.78 | 15.3 ± 0.94 | – | 271 ± 20.7 | – | TE FRAP ([2]; isolated compounds (Table 5), Trolox equivalents, listed as kaempferol (1)): 1046.16 ± 23.78 mM/g
7 | COc1cc(O)c2c(c1)C(=O)c1cc(C)cc(O)c1C2=O [Physcion (5), physcion] | > 200 | <1 | > 200 | > 800 | > 200 | 76 ± 1.34 | –
8 | O=c1c(O)c(-c2ccc(O)c(O)c2)oc2cc(O)cc(O)c12 [Quercetin (2), quercetin] | 16.1 ± 2.62 | 1026.73 ± 16.69 | 5.7 ± 0.92 | – | 85.8 ± 4.76 | – | TE FRAP ([2]; isolated compounds (Table 5), Trolox equivalents, listed as quercetin (2)): 1026.73 ± 16.69 mM/g
